Experimental data from ChEMBL document CHEMBL1201862, “PubChem BioAssay data set” (2004).
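1) Cells in 96-well plates. 2) Compound, 48 h, 5 concentrations. 3) Linear interpolation between surrounding doses. 4) Unreached endpoint = highest concentration. At the GI50, growth is halved.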 Calls of active or inactive are those of the source. Rule as the data show it: active = GI50 up to about 1.1 µM and inactive = higher.

What was measured:
Assay in all cases: NCI tumour cell line growth inhibition, 48 h
A498 = test system: A498
A549 = test system: A549
CAKI-1 = test system: CAKI-1
CCRF-CEM = test system: CCRF-CEM
HCC 2998 = test system: HCC 2998
HOP-62 = test system: HOP-62
HOP-92 = test system: HOP-92
LOX IMVI = test system: LOX IMVI
M14 = test system: M14
NCI-H226 = test system: NCI-H226
NCI-H23 = test system: NCI-H23
SK-MEL-28 = test system: SK-MEL-28
SK-OV-3 = test system: SK-OV-3
SN12C = test system: SN12C
T47D = test system: T47D
TK-10 = test system: TK-10
UACC-257 = test system: UACC-257
UACC-62 = test system: UACC-62
UO-31 = test system: UO-31
Hs-578T = test system: Hs-578T

COc1ccc2nc3ccc(OC)cc3c(SCc3ccc([N+](=O)[O-])cc3)c2c1
GI50 (A498): > 100 µM (inactive)
GI50 (A549): > 100 µM (inactive)
GI50 (CAKI-1): 44.1 µM (inactive)
GI50 (CCRF-CEM): > 100 µM (inactive)
GI50 (HCC 2998): > 100 µM (inactive)
GI50 (HOP-62): 78.9 µM (inactive)
GI50 (HOP-92): > 100 µM (inactive)
GI50 (LOX IMVI): > 100 µM (inactive)
GI50 (M14): > 100 µM (inactive)
GI50 (NCI-H226): 42.8 µM (inactive)
GI50 (NCI-H23): 50 µM (inactive)
GI50 (SK-MEL-28): > 100 µM (inactive)
GI50 (SK-OV-3): > 100 µM (inactive)
GI50 (SN12C): > 100 µM (inactive)
GI50 (T47D): > 100 µM (inactive)
GI50 (TK-10): 34 µM (inactive)
GI50 (UACC-257): > 100 µM (inactive)
GI50 (UACC-62): > 100 µM (inactive)
GI50 (UO-31): > 100 µM (inactive)

N#CCc1nc2cc(C(F)(F)F)ccc2s1
GI50 (A498): 70 µM (inactive)
GI50 (CAKI-1): 70.6 µM (inactive)
GI50 (HOP-62): 73.3 µM (inactive)
GI50 (HOP-92): 20.4 µM (inactive)
GI50 (LOX IMVI): 26.4 µM (inactive)
GI50 (NCI-H226): 57.8 µM (inactive)
GI50 (NCI-H23): 27.7 µM (inactive)
GI50 (SK-OV-3): > 100 µM (inactive)
GI50 (SN12C): 45.5 µM (inactive)
GI50 (T47D): 23.1 µM (inactive)
GI50 (TK-10): 41.8 µM (inactive)
GI50 (UACC-257): 34.4 µM (inactive)

C/C(=C\c1ccccc1)C(=O)NCc1ccc(C(=O)NCCC(C)C)cc1
GI50 (A498): 27 µM (inactive)
GI50 (A549): > 100 µM (inactive)
GI50 (CAKI-1): 93.8 µM (inactive)
GI50 (CCRF-CEM): > 100 µM (inactive)
GI50 (HCC 2998): > 100 µM (inactive)
GI50 (HOP-62): 18.2 µM (inactive)
GI50 (HOP-92): 49.5 µM (inactive)
GI50 (LOX IMVI): > 100 µM (inactive)
GI50 (M14): > 100 µM (inactive)
GI50 (NCI-H226): 40.5 µM (inactive)
GI50 (NCI-H23): 88.3 µM (inactive)
GI50 (SK-MEL-28): > 100 µM (inactive)
GI50 (SK-OV-3): 25.2 µM (inactive)
GI50 (SN12C): 52.7 µM (inactive)
GI50 (T47D): > 100 µM (inactive)
GI50 (TK-10): > 100 µM (inactive)
GI50 (UACC-257): > 100 µM (inactive)
GI50 (UACC-62): 15.6 µM (inactive)
GI50 (UO-31): 37.8 µM (inactive)

Oc1ccc(Cl)cc1C1=NC(NCN2CCN(CNC3=NC(c4ccccc4)CC(c4cc(Cl)ccc4O)=N3)CC2)=NC(c2ccccc2)C1 (centres undefined)
GI50 (A498): 47.8 µM (inactive)
GI50 (A549): 36.1 µM (inactive)
GI50 (CAKI-1): 29.5 µM (inactive)
GI50 (CCRF-CEM): 21.5 µM (inactive)
GI50 (HCC 2998): 52.6 µM (inactive)
GI50 (HOP-62): 42.2 µM (inactive)
GI50 (HOP-92): 58.2 µM (inactive)
GI50 (Hs-578T): 55.7 µM (inactive)
GI50 (LOX IMVI): 40.6 µM (inactive)
GI50 (M14): 58.6 µM (inactive)
GI50 (NCI-H226): 53.8 µM (inactive)
GI50 (NCI-H23): 46.6 µM (inactive)
GI50 (SK-MEL-28): > 100 µM (inactive)
GI50 (SK-OV-3): 66.7 µM (inactive)
GI50 (SN12C): 24.7 µM (inactive)
GI50 (TK-10): 48.8 µM (inactive)
GI50 (UACC-257): > 100 µM (inactive)
GI50 (UACC-62): 45 µM (inactive)
GI50 (UO-31): 37.3 µM (inactive)

O=C1c2ccccc2-n2c1nc1ccc(Cl)cc1c2=O
GI50 (A498): > 100 µM (inactive)
GI50 (A549): 26.1 µM (inactive)
GI50 (CAKI-1): 33 µM (inactive)
GI50 (CCRF-CEM): 3.2 µM (inactive)
GI50 (HCC 2998): > 100 µM (inactive)
GI50 (HOP-62): 30.8 µM (inactive)
GI50 (HOP-92): 45.3 µM (inactive)
GI50 (LOX IMVI): > 100 µM (inactive)
GI50 (M14): > 100 µM (inactive)
GI50 (NCI-H226): > 100 µM (inactive)
GI50 (NCI-H23): 66.2 µM (inactive)
GI50 (SK-OV-3): > 100 µM (inactive)
GI50 (SN12C): > 100 µM (inactive)
GI50 (T47D): 0.474 µM (active)
GI50 (TK-10): 77.4 µM (inactive)
GI50 (UACC-257): 42.1 µM (inactive)
GI50 (UACC-62): 16.3 µM (inactive)
GI50 (UO-31): 59.4 µM (inactive)

COc1ccc2nc3ccc(OC)cc3c(SCC3CO3)c2c1 (centres undefined)
GI50 (A498): 25.8 µM (inactive)
GI50 (A549): 24.2 µM (inactive)
GI50 (CAKI-1): 5.79 µM (inactive)
GI50 (CCRF-CEM): 6.85 µM (inactive)
GI50 (HCC 2998): 15.6 µM (inactive)
GI50 (HOP-62): 44.6 µM (inactive)
GI50 (LOX IMVI): 15.4 µM (inactive)
GI50 (M14): 14.4 µM (inactive)
GI50 (NCI-H226): 34.4 µM (inactive)
GI50 (NCI-H23): 17.2 µM (inactive)
GI50 (SK-MEL-28): 17.7 µM (inactive)
GI50 (SK-OV-3): 71.3 µM (inactive)
GI50 (SN12C): 13.8 µM (inactive)
GI50 (T47D): 16.8 µM (inactive)
GI50 (TK-10): 12.8 µM (inactive)
GI50 (UACC-257): 15.5 µM (inactive)
GI50 (UO-31): 12.3 µM (inactive)
